Measurements as given in patent publication US9167822B2, “Antifungal compositions” (DSM IP ASSETS B.V., priority 2012, dated 2015).
Values joined by “and” are separate entries in the source; they are usually repeats but may differ in a detail not shown here. Equal entries are not always repeated.

Legend:
Botrytis cinerea [1] = test: Treatment of strawberries: wounded, inoculated with Botrytis cinerea, then dipped in antifungal composition; type: in vivo
Protocol: (§1) Ten fresh, organic strawberries were used per treatment. Each strawberry was wounded with a 0.5 mm long cut and each wound was inoculated with 10 μl of a Botrytis cinerea suspension containing 1×10^5 of spores/ml. […] The pH of the compositions was 4. A composition without natamycin or bixafen was used as control. The treated strawberries were incubated in a closed box in the dark at 20° C.
(§2) During incubation, mould growth on the strawberries was assessed in a twofold manner: (i) the number of moulded strawberries per total of 10 strawberries was counted; and (ii) the antifungal activity (in %) of the individual and combined active ingredients was determined by calculating the reduction in mould growth observed on the strawberries treated with the antifungal composition in comparison to the mould growth on the strawberries treated with the control composition. The expected antifungal activity (E in %) of the combined antifungal composition comprising both active ingredients was calculated according to the Colby equation (Colby, 1967): E=X+Y−[(X·Y)/100] wherein X and Y are the observed antifungal activities (in %) of the individual active ingredients X and Y, respectively. If the observed antifungal activity (O in %) of the combination exceeds the expected antifungal activity (E in %) of the combination and the synergy factor O/E is thus >1.0, the combined application of the active ingredients leads to a synergistic antifungal effect.
The treated strawberries were assessed on mould growth. The antifungal activity (in %) of the individual and combined active ingredients was determined according to the method described in Example 3. […]

Botrytis cinerea [2] = test: Treatment of strawberries: wounded, dipped in antifungal composition, then inoculated with Botrytis cinerea; type: in vivo; conditions: 1000 ppm bixafen or both
Protocol: as §1, §2
After treatment, each strawberry was inoculated with 10 μl of a Botrytis cinerea suspension containing 1×10^5 of spores/ml. The treated strawberries were assessed on mould growth according to the two methods described in Example 3.

Penicillium italicum [3] = test: In vitro antifungal activity, 96-well microtiter plates; type: cell-based; conditions: 25° C., day 10, 1.25 ppm natamycin, 25 ppm bixafen or both
Protocol: Subsequently, 100 μl of a Botrytis cinerea suspension prepared in PCB medium was used to inoculated each well with 2.5×10^3 spores/ml.
After incubation of the microtiter plates at 25° C., the in vitro antifungal activity (%) of the individual active ingredients was assessed by calculating the reduction in mould growth observed in the presence of the active ingredient in comparison to the mould growth observed in the absence of the active ingredient. The expected antifungal activity (E in %) of the active ingredient combination was calculated according to the Colby equation (Colby, 1967): E=X+Y−[(X·Y)/100] wherein X and Y are the observed antifungal activities (in %) of the individual active ingredients X and Y, respectively. If the observed antifungal activity (O in %) of the combination exceeds the expected antifungal activity (E in %) of the combination and the resulting synergy factor O/E is thus >1.0, the combined application of the active ingredients leads to a synergistic antifungal effect.
Furthermore, Penicillium italicum was used for inoculation.

Penicillium italicum [4] = test: Treatment of mandarins wounded and inoculated with Penicillium italicum, then dipped; type: in vivo
Protocol: Ten fresh, organic mandarins were used per treatment. The peel of each mandarin was wounded once using a cork borer according to the method described by de Lapeyre de Bellaire and Dubois (1987). Subsequently, each wound was inoculated with 10 μl of a Penicillium italicum suspension containing 1×10^5 of spores/ml. […] The pH of the compositions was 4.
The treated mandarins were incubated in a closed box in the dark at 20° C. and assessed on mould growth during incubation.

Penicillium italicum [5] = test: Treatment of apples wounded and inoculated with Penicillium italicum, then dipped; type: in vivo; conditions: for Number of moulded apples/total number of 10 apples: 500 ppm natamycin; for Number of moulded apples per total of 10 apples: 250 ppm natamycin
Protocol: Ten fresh, organic apples were used per treatment. Each apple was wounded once using a cork borer according to the method described by de Lapeyre de Bellaire and Dubois (1987). Subsequently, each wound was inoculated with 10 μl of a Penicillium italicum suspension containing 1×10^6 of spores/ml. […] The pH of the compositions was 4. A composition without natamycin or bixafen was used as control. The treated apples were incubated in a closed box in the dark at 20° C. […]
During incubation, the treated apples were assessed on mould growth according to the two methods described in Example 3. […]

[6] = day 3, 500 ppm natamycin, 2000 ppm bixafen or both
[7] = day 4, 250 ppm natamycin, 250 ppm bixafen or both
[8] = day 4, 250 ppm natamycin, 500 ppm bixafen or both
[9] = day 4, 500 ppm natamycin, 2000 ppm bixafen or both
[10] = day 6, 250 ppm natamycin, 250 ppm bixafen or both
[11] = day 6, 250 ppm natamycin, 500 ppm bixafen or both
[12] = day 6, 500 ppm natamycin, 2000 ppm bixafen or both
[13] = day 7, 250 ppm natamycin, 250 ppm bixafen or both
[14] = day 7, 250 ppm natamycin, 500 ppm bixafen or both
[15] = day 9, 250 ppm natamycin, 500 ppm bixafen or both
[16] = day 9, 500 ppm natamycin, 2000 ppm bixafen or both
[17] = day 6, 500 ppm natamycin, 1000 ppm bixafen or both
[18] = day 9, 500 ppm natamycin, 1000 ppm bixafen or both
[19] = day 11, 500 ppm natamycin, 2000 ppm bixafen or both
[20] = day 14, 500 ppm natamycin, 1000 ppm bixafen or both
[21] = day 14, 500 ppm natamycin, 2000 ppm bixafen or both

## Cn1cc(C(=O)Nc2ccc(F)cc2-c2ccc(Cl)c(Cl)c2)c(C(F)F)n1 [Bixafen, bixafen]
Botrytis cinerea [1]; Day 3, 20° C., 250 ppm natamycin, 250 ppm bixafen or both
  Number of moulded strawberries/total number of 10 strawberries: 9 and 9/10
Botrytis cinerea [1]; Day 3, 20° C., 500 ppm natamycin, 2000 ppm bixafen or both
  Number of moulded strawberries/total number of 10 strawberries: 8 and 8/10
Botrytis cinerea [1]; Day 4, 20° C., 250 ppm natamycin, 250 ppm bixafen or both
  Number of moulded strawberries/total number of 10 strawberries: 9 and 9/10
Botrytis cinerea [1]; Day 4, 20° C., 500 ppm natamycin, 2000 ppm bixafen or both
  Number of moulded strawberries/total number of 10 strawberries: 9 and 9/10
Botrytis cinerea [1]; Day 5, 20° C., 250 ppm natamycin, 250 ppm bixafen or both
  Number of moulded strawberries/total number of 10 strawberries: 10 and 10/10
Botrytis cinerea [1]; Day 5-6, 20° C., 500 ppm natamycin, 2000 ppm bixafen or both
  Number of moulded strawberries/total number of 10 strawberries: 10 and 10/10
Botrytis cinerea [1]; [6]
  Observed antifungal activity O (%): 62%
Botrytis cinerea [1]; [7]
  Observed antifungal activity O (%): 47%
Botrytis cinerea [1]; [8]
  Observed antifungal activity O (%): 65%
Botrytis cinerea [1]; [9]
  Observed antifungal activity O (%): 55%
Botrytis cinerea [1]; day 5, 250 ppm natamycin, 250 ppm bixafen or both
  Observed antifungal activity O (%): 33%
Botrytis cinerea [1]; day 5, 500 ppm natamycin, 2000 ppm bixafen or both
  Observed antifungal activity O (%): 34%
Botrytis cinerea [1]; [10]
  Observed antifungal activity O (%): 23%
Botrytis cinerea [1]; [11]
  Observed antifungal activity O (%): 33%
Botrytis cinerea [1]; [12]
  Observed antifungal activity O (%): 27%
Botrytis cinerea [1]; [13]
  Observed antifungal activity O (%): 10%
Botrytis cinerea [1]; [14]
  Observed antifungal activity O (%): 12%
Botrytis cinerea [1]; day 7, 500 ppm natamycin, 2000 ppm bixafen or both
  Observed antifungal activity O (%): 12%
Botrytis cinerea [1]; [15]
  Observed antifungal activity O (%): 5%
Botrytis cinerea [1]; [16]
  Observed antifungal activity O (%): 3%
Botrytis cinerea [1]; day 10, 250 ppm natamycin, 500 ppm bixafen or both
  Observed antifungal activity O (%): 0%
Botrytis cinerea [2]; day 3, 500 ppm natamycin
  Observed antifungal activity O (%): 72%
Botrytis cinerea [2]; day 5, 20° C., 250 ppm natamycin
  Number of moulded wounds/total number of 10 wounds: 8 and 8/10
Botrytis cinerea [2]; day 5, 500 ppm natamycin
  Observed antifungal activity O (%): 55%
Botrytis cinerea [2]; day 6, 500 ppm natamycin
  Observed antifungal activity O (%): 35%
Penicillium italicum [3]
  Observed antifungal activity O (%): 50%
Penicillium italicum [4]; day 3, 250 ppm natamycin, 250 ppm bixafen or both
  Observed antifungal activity O (%): 65%
Penicillium italicum [4]; [7]
  Observed antifungal activity O (%): 27%
Penicillium italicum [4]; [8]
  Observed antifungal activity O (%): 40%
Penicillium italicum [4]; day 4, 500 ppm natamycin, 1000 ppm bixafen or both
  Observed antifungal activity O (%): 37%
Penicillium italicum [4]; [9]
  Observed antifungal activity O (%): 47%
Penicillium italicum [4]; [10]
  Observed antifungal activity O (%): 28%
Penicillium italicum [4]; [11]
  Observed antifungal activity O (%): 26%
Penicillium italicum [4]; [17]
  Observed antifungal activity O (%): 22%
Penicillium italicum [4]; [12]
  Observed antifungal activity O (%): 32%
Penicillium italicum [4]; [13]
  Observed antifungal activity O (%): 10%
Penicillium italicum [4]; [14]
  Observed antifungal activity O (%): 10%
Penicillium italicum [4]; day 7, 500 ppm natamycin, 1000 ppm bixafen or both
  Observed antifungal activity O (%): 6%
Penicillium italicum [4]; day 9, 250 ppm natamycin, 250 ppm bixafen or both
  Observed antifungal activity O (%): 0%
Penicillium italicum [4]; [15]
  Observed antifungal activity O (%): 0%
Penicillium italicum [4]; [18]
  Observed antifungal activity O (%): 2%
Penicillium italicum [4]; [16]
  Observed antifungal activity O (%): 7%
Penicillium italicum [4]; day 11, 250 ppm natamycin, 500 ppm bixafen or both
  Observed antifungal activity O (%): 0%
Penicillium italicum [4]; [19]
  Observed antifungal activity O (%): 9%
Penicillium italicum [4]; day 13, 250 ppm natamycin, 500 ppm bixafen or both
  Observed antifungal activity O (%): 0%
Penicillium italicum [4]; [20]
  Observed antifungal activity O (%): 0%
Penicillium italicum [4]; [21]
  Observed antifungal activity O (%): 3%
Penicillium italicum [4]; day 15, 250 ppm natamycin, 500 ppm bixafen or both
  Observed antifungal activity O (%): 0%
Penicillium italicum [4]; day 15, 500 ppm natamycin, 1000 ppm bixafen or both
  Observed antifungal activity O (%): 0%
Penicillium italicum [4]; day 15, 500 ppm natamycin, 2000 ppm bixafen or both
  Observed antifungal activity O (%): 0%
Penicillium italicum [5]; Day 3, 20° C., 1000 ppm bixafen or both
  Number of moulded apples/total number of 10 apples: 6 and 6/10
Penicillium italicum [5]; Day 3-4, 20° C., 2000 ppm bixafen or both
  Number of moulded apples/total number of 10 apples: 5/10
Penicillium italicum [5]; Day 4, 20° C., 1000 ppm bixafen or both
  Number of moulded apples/total number of 10 apples: 6 and 6/10
Penicillium italicum [5]; Day 6, 20° C., 500 ppm bixafen or both
  Number of moulded apples per total of 10 apples: 10 and 10/10
Penicillium italicum [5]; Day 6, 20° C., 1000 ppm bixafen or both
  Number of moulded apples/total number of 10 apples: 8 and 8/10
Penicillium italicum [5]; Day 6, 20° C., 2000 ppm bixafen or both
  Number of moulded apples/total number of 10 apples: 8 and 8/10
Penicillium italicum [5]; Day 6-9, 20° C., 250 ppm bixafen or both
  Number of moulded apples per total of 10 apples: all and 10/10
Penicillium italicum [5]; Day 7, 20° C., 500 ppm bixafen or both
  Number of moulded apples per total of 10 apples: 10 and 10/10
Penicillium italicum [5]; Day 7, 20° C., 1000 ppm bixafen or both
  Number of moulded apples/total number of 10 apples: 9 and 9/10
Penicillium italicum [5]; Day 7, 20° C., 2000 ppm bixafen or both
  Number of moulded apples/total number of 10 apples: 8 and 8/10
Penicillium italicum [5]; Day 9, 20° C., 500 ppm bixafen or both
  Number of moulded apples per total of 10 apples: 10 and 10/10
Penicillium italicum [5]; Day 9-14, 20° C., 1000 ppm bixafen or both
  Number of moulded apples/total number of 10 apples: all and 10/10
Penicillium italicum [5]; Day 9-14, 20° C., 2000 ppm bixafen or both
  Number of moulded apples/total number of 10 apples: all and 10/10
Penicillium italicum [5]; Day 11-15, 20° C., 250 ppm bixafen or both
  Number of moulded apples per total of 10 apples: all and 10/10
Penicillium italicum [5]; day 3, 500 ppm natamycin, 1000 ppm bixafen or both
  Observed antifungal activity O (%): 47%
Penicillium italicum [5]; [6]
  Observed antifungal activity O (%): 60%
Penicillium italicum [5]; day 6, 250 ppm natamycin, 250 ppm bixafen or both (bixafen 500 ppm)
  Observed antifungal activity O (%): 17%
Penicillium italicum [5]; [11]
  Observed antifungal activity O (%): 33%
Penicillium italicum [5]; [17]
  Observed antifungal activity O (%): 44%
Penicillium italicum [5]; [12]
  Observed antifungal activity O (%): 39%
Penicillium italicum [5]; [14]
  Observed antifungal activity O (%): 39%
Penicillium italicum [5]; day 9, 250 ppm natamycin, 250 ppm bixafen or both (bixafen 500 ppm)
  Observed antifungal activity O (%): 13%
Penicillium italicum [5]; [15]
  Observed antifungal activity O (%): 17%
Penicillium italicum [5]; [18]
  Observed antifungal activity O (%): 38%
Penicillium italicum [5]; [16]
  Observed antifungal activity O (%): 29%
Penicillium italicum [5]; day 11, 250 ppm natamycin, 250 ppm bixafen or both (bixafen 500 ppm)
  Observed antifungal activity O (%): 0%
Penicillium italicum [5]; day 11, 500 ppm natamycin, 1000 ppm bixafen or both
  Observed antifungal activity O (%): 30%
Penicillium italicum [5]; [19]
  Observed antifungal activity O (%): 30%
Penicillium italicum [5]; day 14, 250 ppm natamycin, 250 ppm bixafen or both (bixafen 500 ppm)
  Observed antifungal activity O (%): 6%
Penicillium italicum [5]; [20]
  Observed antifungal activity O (%): 21%
Penicillium italicum [5]; [21]
  Observed antifungal activity O (%): 36%
